According to patent publication US20250262279A1, “DOSE REGIMEN FOR LONG-ACTING GLP1/GLUCAGON RECEPTOR AGONISTS” (Boehringer Ingelheim International GmbH, priority 2021, published 2025):
Read-outs that look alike come from different tables or passages of the source.

Experiments:
[1] = Example 2: plasma pharmacokinetics; assay type: in vivo; settings: human, sc, read-out: AUC0-168 (gMean)
Excerpt: In Table 9, only the gMean PK parameters of subjects who followed the planned dose rising scheme are included. Following subcutaneous administration of Compound I, the gMean plasma AUC0-168 and Cmax increased with further weekly or twice weekly dosing.

[2] = plasma half-life in humans; assay type: in vivo; settings: human, estimated
[3] = Example 3: safety (AEs, laboratory, ECG, vital signs, NASH scores); assay type: in vivo, human
Procedure: • Semaglutide • Dose: 0.25, 0.25, 0.25, 0.25, 0.5, 0.5, 0.5, 0.5, 1.0 mg (weeks 9−16) once weekly • Mode of administration: Solution for injection
Safety endpoints included Columbia-Suicide Severity Rating Scale (C-SSRS) and various electrocardiograms (ECG) assessments. Safety was assessed based on adverse events (AEs), adverse event of special interest (AESIs), clinical laboratory assessments, vital signs, and physical examination. AESIs were pre-specified in the protocol as pancreatitis and hepatic injury.
Analyses of safety were descriptive.

[4] = first-in-man Phase I single-rising-dose study, adverse events; assay type: in vivo, human
Procedure: Compound I was recently studied in a first-in-man Phase I single-rising-dose study. In this study, a dose of 0.3 mg led to ‘mild loss of appetite’ in 33% of healthy subjects. This specific AE increased to 50% in the 0.5 mg dose group. Dose escalation to 1.2 mg was associated with 83% of the subjects experiencing moderate to severe nausea for 1 to 6 days and mild to severe vomiting.

[5] = Example 1: plasma pharmacokinetics; assay type: in vivo; settings: human, sc; for Cmax: read-out: Cmax (gMean)

CC[C@H](C)[C@H](NC(=O)[C@H](Cc1ccccc1)NC(=O)[C@H](CC(=O)O)NC(=O)[C@H](CCCCN)NC(=O)[C@H](C)NC(=O)[C@H](C)NC(=O)[C@H](CCCNC(=N)N)NC(=O)[C@H](CCC(=O)O)NC(=O)[C@H](CC(=O)O)NC(=O)[C@H](CC(C)C)NC(=O)[C@H](Cc1ccc(O)cc1)NC(=O)[C@H](CCCCN)NC(=O)[C@H](CO)NC(=O)[C@H](Cc1ccc(O)cc1)NC(=O)[C@H](CC(=O)O)NC(=O)[C@H](CO)NC(=O)[C@@H](NC(=O)[C@H](Cc1ccccc1)NC(=O)[C@@H](NC(=O)CNC(=O)[C@H](CCC(N)=O)NC(=O)C1(NC(=O)[C@@H](N)Cc2c[nH]cn2)CCC1)[C@@H](C)O)[C@@H](C)O)C(=O)N[C@@H](CCCCNC(=O)CNC(=O)CNC(=O)[C@H](CO)NC(=O)CNC(=O)[C@H](CO)NC(=O)CNC(=O)CC[C@H](NC(=O)CCCCCCCCCCCCCCCCC(=O)O)C(=O)O)C(=O)N[C@@H](Cc1c[nH]c2ccccc12)C(=O)N[C@@H](CC(C)C)C(=O)N[C@@H](CCC(=O)O)C(=O)N[C@@H](CO)C(=O)N[C@@H](C)C(N)=O [Compound I]
AUC(0-t) ([1]; 0.6 mg, Ex.2 DG2 weekly, wk 1, 0.6 mg sc): 2.02 µM·h
AUC(0-t) ([1]; 0.6 mg, Ex.2 DG3 twice weekly, wk 3, 0.6 mg sc): 1.64 µM·h
AUC(0-t) ([1]; 0.9 mg, Ex.2 DG1 weekly, wk 3, 0.9 mg sc): 3.62 µM·h
AUC(0-t) ([1]; 0.9 mg, Ex.2 DG3 twice weekly, wk 5, 0.9 mg sc): 3.52 µM·h
AUC(0-t) ([1]; 0.9 mg, Ex.2 DG3 twice weekly, wk 6, 0.9 mg sc): 3.83 µM·h
AUC(0-t) ([1]; 1.2 mg, Ex.2 DG2 weekly, wk 3, 1.2 mg sc): 4.93 µM·h
AUC(0-t) ([1]; 1.2 mg, Ex.2 DG3 twice weekly, wk 7, 1.2 mg sc): 4.69 µM·h
AUC(0-t) ([1]; 1.5 mg, Ex.2 DG1 weekly, wk 5, 1.5 mg sc): 6.74 µM·h
AUC(0-t) ([1]; 1.5 mg, Ex.2 DG3 twice weekly, wk 9, 1.5 mg sc): 6.72 µM·h
AUC(0-t) ([1]; 1.8 mg, Ex.2 DG1 weekly, wk 6, 1.8 mg sc): 8.41 µM·h
AUC(0-t) ([1]; 1.8 mg, Ex.2 DG1 weekly, wk 7, 1.8 mg sc): 9.01 µM·h
AUC(0-t) ([1]; 1.8 mg, Ex.2 DG1 weekly, wk 9, 1.8 mg sc): 8.52 µM·h
AUC(0-t) ([1]; 1.8 mg, Ex.2 DG1 weekly, wk 11, 1.8 mg sc): 8.83 µM·h
AUC(0-t) ([1]; 1.8 mg, Ex.2 DG1 weekly, wk 13, 1.8 mg sc): 9.22 µM·h
AUC(0-t) ([1]; 1.8 mg, Ex.2 DG1 weekly, wk 15, 1.8 mg sc): 9.5 µM·h
AUC(0-t) ([1]; 1.8 mg, Ex.2 DG1 weekly, wk 16, 1.8 mg sc): 9.62 µM·h
AUC(0-t) ([1]; 1.8 mg, Ex.2 DG2 weekly, wk 5, 1.8 mg sc): 6.64 µM·h
AUC(0-t) ([1]; 1.8 mg, Ex.2 DG2 weekly, wk 6, 1.8 mg sc): 7.55 µM·h
AUC(0-t) ([1]; 1.8 mg, Ex.2 DG3 twice weekly, wk 11, 1.8 mg sc): 8.21 µM·h
AUC(0-t) ([1]; 2.1 mg, Ex.2 DG3 twice weekly, wk 13, 2.1 mg sc): 9.78 µM·h
AUC(0-t) ([1]; 2.4 mg, Ex.2 DG2 weekly, wk 7, 2.4 mg sc): 9.83 µM·h
AUC(0-t) ([1]; 2.4 mg, Ex.2 DG3 twice weekly, wk 15, 2.4 mg sc): 10.2 µM·h
AUC(0-t) ([1]; 2.4 mg, Ex.2 DG3 twice weekly, wk 16, 2.4 mg sc): 11.2 µM·h
AUC(0-t) ([1]; 3 mg, Ex.2 DG2 weekly, wk 9, 3.0 mg sc): 13.7 µM·h
AUC(0-t) ([1]; 3.6 mg, Ex.2 DG2 weekly, wk 11, 3.6 mg sc): 16.4 µM·h
AUC(0-t) ([1]; 4.2 mg, Ex.2 DG2 weekly, wk 13, 4.2 mg sc): 19.3 µM·h
AUC(0-t) ([1]; 4.8 mg, Ex.2 DG2 weekly, wk 15, 4.8 mg sc): 22.9 µM·h
half-life [2]: ~110 h
deaths ([3]; Ex.3, whole trial): no deaths
AEs of special interest, percentage of patients ([3]; in vivo): (0.3) interest %
cases of pancreatitis ([3]; in vivo): no cases of pancreatitis
healthy subjects with mild loss of appetite ([4]; single dose 0.3 mg): 33%
healthy subjects with mild loss of appetite ([4]; single dose 0.5 mg): 50%
subjects with moderate to severe nausea for 1 to 6 days and mild to severe vomiting ([4]; single dose 1.2 mg): 83%
AUC(0-t) ([5]; 0.3 mg, Ex.1 twice weekly scheme, wk 1, 0.3 mg sc, read-out: AUC0-72 (gMean)): 0.342 µM·h
Cmax ([5]; 0.3 mg, Ex.1 twice weekly scheme, wk 1, 0.3 mg sc): 5.38 nM
AUC(0-t) ([5]; 0.3 mg, Ex.1 weekly scheme 1, wk 1, 0.3 mg sc, read-out: AUC0-168 (gMean)): 0.617 µM·h
Cmax ([5]; 0.3 mg, Ex.1 weekly scheme 1, wk 1, 0.3 mg sc): 5.08 nM
AUC(0-t) ([5]; 0.4 mg, Ex.1 weekly scheme 2, wk 1, 0.4 mg sc, read-out: AUC0-168 (gMean)): 0.818 µM·h
Cmax ([5]; 0.4 mg, Ex.1 weekly scheme 2, wk 1, 0.4 mg sc): 6.51 nM
AUC(0-t) ([5]; 0.6 mg, Ex.1 twice weekly scheme, wk 3, 0.6 mg sc, read-out: AUC0-72 (gMean)): 1.2 µM·h
Cmax ([5]; 0.6 mg, Ex.1 twice weekly scheme, wk 3, 0.6 mg sc): 20.4 nM
AUC(0-t) ([5]; 0.6 mg, Ex.1 weekly scheme 1, wk 2, 0.6 mg sc, read-out: AUC0-168 (gMean)): 1.41 µM·h
Cmax ([5]; 0.6 mg, Ex.1 weekly scheme 1, wk 2, 0.6 mg sc): 12.3 nM
AUC(0-t) ([5]; 0.6 mg, Ex.1 weekly scheme 3, wk 1, 0.6 mg sc, read-out: AUC0-168 (gMean)): 1.24 µM·h
Cmax ([5]; 0.6 mg, Ex.1 weekly scheme 3, wk 1, 0.6 mg sc): 10.7 nM
AUC(0-t) ([5]; 0.6 mg, Ex.1 weekly scheme 3, wk 2, 0.6 mg sc, read-out: AUC0-168 (gMean)): 1.71 µM·h
Cmax ([5]; 0.6 mg, Ex.1 weekly scheme 3, wk 2, 0.6 mg sc): 14.4 nM
AUC(0-t) ([5]; 0.6 mg, Ex.1 weekly scheme 4, wk 1, 0.6 mg sc, read-out: AUC0-168 (gMean)): 1.57 µM·h
Cmax ([5]; 0.6 mg, Ex.1 weekly scheme 4, wk 1, 0.6 mg sc): 15.7 nM
AUC(0-t) ([5]; 0.6 mg, Ex.1 weekly scheme 4, wk 3, 0.6 mg sc, read-out: AUC0-168 (gMean)): 2.49 µM·h
Cmax ([5]; 0.6 mg, Ex.1 weekly scheme 4, wk 3, 0.6 mg sc): 22.3 nM
AUC(0-t) ([5]; 0.6 mg, Ex.1 weekly scheme 5, wk 1, 0.6 mg sc, read-out: AUC0-168 (gMean)): 1.44 µM·h
Cmax ([5]; 0.6 mg, Ex.1 weekly scheme 5, wk 1, 0.6 mg sc): 13.2 nM
AUC(0-t) ([5]; 0.8 mg, Ex.1 weekly scheme 2, wk 2, 0.8 mg sc, read-out: AUC0-168 (gMean)): 2.04 µM·h
Cmax ([5]; 0.8 mg, Ex.1 weekly scheme 2, wk 2, 0.8 mg sc): 16.9 nM
AUC(0-t) ([5]; 0.9 mg, Ex.1 twice weekly scheme, wk 5, 0.9 mg sc, read-out: AUC0-72 (gMean)): 2.39 µM·h
Cmax ([5]; 0.9 mg, Ex.1 twice weekly scheme, wk 5, 0.9 mg sc): 40.8 nM
AUC(0-t) ([5]; 0.9 mg, Ex.1 twice weekly scheme, wk 6, 0.9 mg sc, read-out: AUC0-72 (gMean)): 2.78 µM·h
Cmax ([5]; 0.9 mg, Ex.1 twice weekly scheme, wk 6, 0.9 mg sc): 49.2 nM
AUC(0-t) ([5]; 0.9 mg, Ex.1 weekly scheme 1, wk 3, 0.9 mg sc, read-out: AUC0-168 (gMean)): 2.48 µM·h
Cmax ([5]; 0.9 mg, Ex.1 weekly scheme 1, wk 3, 0.9 mg sc): 20.6 nM
AUC(0-t) ([5]; 1.2 mg, Ex.1 twice weekly scheme, wk 7, 1.2 mg sc, read-out: AUC0-72 (gMean)): 3.56 µM·h
Cmax ([5]; 1.2 mg, Ex.1 twice weekly scheme, wk 7, 1.2 mg sc): 58.8 nM
AUC(0-t) ([5]; 1.2 mg, Ex.1 weekly scheme 1, wk 4, 1.2 mg sc, read-out: AUC0-168 (gMean)): 3.36 µM·h
